The source of these data is BindingDB's records for patent US20240335442 (Eurofarma, 2024).

For test [1], the target named is Sodium channel protein type 9 subunit alpha (Homo sapiens, UniProt Q15858). The test can be described thus: In Vitro Assay (Protocol 2). As for the experimental part:
(§1) Compounds of Formula (I), were diluted in eight concentrations in the extracellular solution composed of physiological saline, buffered with HEPES (mM): NaCl, 137; KCl, 4; CaCl2, 3.8; MgCl2, 1; HEPES, 10; Glucose, 10; pH 7.4. […], 50; CsF, 90; MgCl2, 5; EGTA, 5; HEPES, 10; pH 7.2. The duration of exposure of each compound with the cells expressing Nav 1.7 or Nav 1.8 was at least five minutes and the assays were performed at room temperature.The measurements of the sodium currents of Nav 1.8 and Nav 1.7 were obtained using the voltage protocols described below: A holding voltage of-100 mV was established followed by an inactivation voltage step at −40 mV for 8 seconds, followed by a −100 mV step for 20 ms, followed by a 20 ms step for 10 mV for Nav 1.8 or 0 mV for Nav 1.7 (TP1A) before returning to the holding voltage of-100 mV. Protocols were repeated at a frequency of 0.05 Hz and current amplitude was quantified over the TP1A phase log.

In test [2] the target is Sodium channel protein type 10 subunit alpha (Homo sapiens, UniProt Q9Y5Y9). Briefly: In Vitro Assay (Protocol 2). As for the experimental part:
as §1

Sodium channel protein type 9 subunit alpha, sequence (Q15858 whole entry): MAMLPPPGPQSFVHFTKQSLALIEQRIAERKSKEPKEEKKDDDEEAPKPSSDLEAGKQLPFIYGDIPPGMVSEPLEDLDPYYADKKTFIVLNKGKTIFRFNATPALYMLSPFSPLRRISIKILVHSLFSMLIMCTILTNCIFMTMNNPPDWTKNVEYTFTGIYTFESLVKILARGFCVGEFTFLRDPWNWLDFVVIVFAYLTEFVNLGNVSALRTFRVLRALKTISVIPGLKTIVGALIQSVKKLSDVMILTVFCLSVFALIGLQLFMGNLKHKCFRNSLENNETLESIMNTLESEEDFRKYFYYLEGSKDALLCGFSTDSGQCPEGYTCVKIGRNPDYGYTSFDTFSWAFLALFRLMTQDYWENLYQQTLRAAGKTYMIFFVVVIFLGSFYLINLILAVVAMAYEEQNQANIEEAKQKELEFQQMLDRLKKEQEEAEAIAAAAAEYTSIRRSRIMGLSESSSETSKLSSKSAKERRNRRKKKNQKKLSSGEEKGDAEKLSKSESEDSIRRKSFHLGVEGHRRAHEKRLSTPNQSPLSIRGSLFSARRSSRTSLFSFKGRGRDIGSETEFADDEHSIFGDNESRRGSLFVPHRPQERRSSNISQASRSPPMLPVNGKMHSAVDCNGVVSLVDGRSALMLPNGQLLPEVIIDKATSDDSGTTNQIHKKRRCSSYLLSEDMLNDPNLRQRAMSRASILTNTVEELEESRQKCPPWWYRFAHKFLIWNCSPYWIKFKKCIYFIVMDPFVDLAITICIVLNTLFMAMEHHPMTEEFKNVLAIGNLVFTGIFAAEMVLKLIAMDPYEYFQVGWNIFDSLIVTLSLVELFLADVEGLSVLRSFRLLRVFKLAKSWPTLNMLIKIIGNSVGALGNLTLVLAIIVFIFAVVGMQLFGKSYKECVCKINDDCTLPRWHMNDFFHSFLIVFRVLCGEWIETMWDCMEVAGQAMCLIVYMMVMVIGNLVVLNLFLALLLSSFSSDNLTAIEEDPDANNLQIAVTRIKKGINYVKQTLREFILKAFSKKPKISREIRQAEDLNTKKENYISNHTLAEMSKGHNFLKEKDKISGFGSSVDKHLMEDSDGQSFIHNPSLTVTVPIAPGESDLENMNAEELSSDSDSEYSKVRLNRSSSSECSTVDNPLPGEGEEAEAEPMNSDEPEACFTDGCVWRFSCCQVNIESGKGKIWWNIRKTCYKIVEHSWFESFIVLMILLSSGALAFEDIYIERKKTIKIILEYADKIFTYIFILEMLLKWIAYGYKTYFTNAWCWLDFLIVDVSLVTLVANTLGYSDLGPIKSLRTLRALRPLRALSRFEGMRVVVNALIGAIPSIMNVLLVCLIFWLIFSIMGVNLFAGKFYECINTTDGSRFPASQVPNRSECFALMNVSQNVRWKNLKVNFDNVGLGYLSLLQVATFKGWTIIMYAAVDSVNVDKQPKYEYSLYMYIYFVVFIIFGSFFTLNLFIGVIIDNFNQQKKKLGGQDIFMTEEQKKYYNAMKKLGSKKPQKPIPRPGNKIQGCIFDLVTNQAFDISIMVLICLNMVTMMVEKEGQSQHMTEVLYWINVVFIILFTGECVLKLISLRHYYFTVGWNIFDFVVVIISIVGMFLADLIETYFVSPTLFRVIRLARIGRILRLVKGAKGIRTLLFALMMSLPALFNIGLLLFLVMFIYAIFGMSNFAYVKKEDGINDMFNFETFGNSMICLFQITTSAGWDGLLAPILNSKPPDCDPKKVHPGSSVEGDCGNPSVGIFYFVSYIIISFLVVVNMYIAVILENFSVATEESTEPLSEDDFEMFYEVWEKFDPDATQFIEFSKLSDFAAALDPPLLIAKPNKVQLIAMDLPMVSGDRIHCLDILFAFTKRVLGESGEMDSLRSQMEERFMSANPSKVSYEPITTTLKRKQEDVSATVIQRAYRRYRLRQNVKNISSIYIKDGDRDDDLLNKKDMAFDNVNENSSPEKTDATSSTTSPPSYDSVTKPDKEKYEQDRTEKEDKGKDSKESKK
Sodium channel protein type 10 subunit alpha, sequence (Q9Y5Y9 whole entry): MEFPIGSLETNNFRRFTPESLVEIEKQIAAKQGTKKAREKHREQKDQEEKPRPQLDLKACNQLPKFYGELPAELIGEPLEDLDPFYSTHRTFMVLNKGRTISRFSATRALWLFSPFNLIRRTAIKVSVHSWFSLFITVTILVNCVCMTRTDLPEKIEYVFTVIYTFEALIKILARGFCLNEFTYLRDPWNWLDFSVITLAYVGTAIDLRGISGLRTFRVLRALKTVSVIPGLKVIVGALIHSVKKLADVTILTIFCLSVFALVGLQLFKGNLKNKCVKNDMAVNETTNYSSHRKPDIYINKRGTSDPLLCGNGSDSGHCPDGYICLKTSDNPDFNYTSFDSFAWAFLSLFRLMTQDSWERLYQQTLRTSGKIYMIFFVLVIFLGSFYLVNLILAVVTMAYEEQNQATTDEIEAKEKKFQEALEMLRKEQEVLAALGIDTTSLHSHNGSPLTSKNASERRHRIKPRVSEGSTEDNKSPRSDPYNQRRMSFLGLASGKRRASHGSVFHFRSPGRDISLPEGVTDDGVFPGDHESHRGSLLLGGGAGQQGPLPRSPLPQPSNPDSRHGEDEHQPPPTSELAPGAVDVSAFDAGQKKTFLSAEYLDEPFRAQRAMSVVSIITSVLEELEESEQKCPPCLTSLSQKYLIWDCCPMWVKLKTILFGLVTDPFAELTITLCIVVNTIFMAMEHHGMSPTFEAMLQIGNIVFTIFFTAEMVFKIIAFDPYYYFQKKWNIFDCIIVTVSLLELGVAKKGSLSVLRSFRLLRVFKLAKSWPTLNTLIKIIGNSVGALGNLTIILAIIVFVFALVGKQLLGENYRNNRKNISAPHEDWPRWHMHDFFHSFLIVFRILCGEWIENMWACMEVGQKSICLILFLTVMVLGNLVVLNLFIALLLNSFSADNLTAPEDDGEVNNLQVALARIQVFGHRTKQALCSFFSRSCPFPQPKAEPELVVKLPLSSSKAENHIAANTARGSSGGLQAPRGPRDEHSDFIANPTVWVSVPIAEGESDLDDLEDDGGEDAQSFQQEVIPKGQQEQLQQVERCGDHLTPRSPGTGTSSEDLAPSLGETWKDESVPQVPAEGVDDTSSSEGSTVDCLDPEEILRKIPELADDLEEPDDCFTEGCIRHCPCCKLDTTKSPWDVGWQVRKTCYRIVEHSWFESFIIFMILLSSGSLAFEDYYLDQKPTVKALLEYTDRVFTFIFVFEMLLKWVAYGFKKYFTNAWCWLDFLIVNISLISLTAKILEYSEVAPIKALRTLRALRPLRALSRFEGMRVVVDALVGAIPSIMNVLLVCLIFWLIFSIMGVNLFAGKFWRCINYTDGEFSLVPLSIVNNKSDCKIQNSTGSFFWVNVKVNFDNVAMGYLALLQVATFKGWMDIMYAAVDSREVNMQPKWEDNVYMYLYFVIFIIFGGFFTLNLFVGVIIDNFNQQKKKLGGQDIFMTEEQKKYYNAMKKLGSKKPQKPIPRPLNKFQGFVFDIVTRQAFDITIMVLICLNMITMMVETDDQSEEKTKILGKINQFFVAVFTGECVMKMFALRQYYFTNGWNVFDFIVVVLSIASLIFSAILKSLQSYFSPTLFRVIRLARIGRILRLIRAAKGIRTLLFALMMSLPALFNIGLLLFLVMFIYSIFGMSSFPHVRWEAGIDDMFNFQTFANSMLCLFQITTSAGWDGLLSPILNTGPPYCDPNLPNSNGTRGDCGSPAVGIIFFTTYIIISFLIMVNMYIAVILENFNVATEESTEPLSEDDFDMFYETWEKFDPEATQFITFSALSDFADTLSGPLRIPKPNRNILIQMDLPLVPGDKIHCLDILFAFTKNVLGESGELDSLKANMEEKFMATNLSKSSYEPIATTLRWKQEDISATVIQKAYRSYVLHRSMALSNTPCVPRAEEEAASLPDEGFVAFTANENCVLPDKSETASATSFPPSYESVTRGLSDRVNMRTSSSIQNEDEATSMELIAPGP

Regarding `COc1ccc(Oc2nccnc2C(=O)N/N=C/c2cc(OC)cc(OC)c2)cc1` [US20240335442, Compound 129], the figures for the half-maximal inhibitory concentration (IC50) in test [1] and in test [2] were > 10000 nM and > 1000 nM, respectively.

Regarding `CCOc1ccc(-c2nc(C(=O)N/N=C/c3cc(OC)cc(OC)c3)cnc2C)cc1` [US20240335442, Compound 207], the figures for the concentration for half-maximal inhibition (IC50) in test [1] and in test [2] were > 10000 nM and 472 nM, respectively.

Turning to `CCOc1ccc(-c2cncc(C(=O)N/N=C/c3cc(OC)cc(C(C)O)c3)n2)cc1` (centres undefined) [US20240335442, Compound 215], the half-inhibitory concentration (IC50) (usually the concentration that inhibits the measured activity by half) came out at 1910 nM in test [1] and 116 nM in test [2].

For `COc1ccc(-c2cncc(C(=O)N/N=C/c3cc(F)cc(F)c3)n2)cc1` [US20240335442, Compound 70], the figures for the concentration for half-maximal inhibition (IC50) in test [1] and in test [2] were 10000 nM and 973 nM, respectively.

With `COc1ccc(-c2cncc(C(=O)N/N=C/C3=C(C)CCCC3)n2)cc1` [US20240335442, Compound 197], the values for the IC50 in test [1] and in test [2] were 778 nM and 162 nM, respectively.

Turning to `COc1ccc(-c2cncc(C(=O)N/N=C/c3cc(C)cc(C)c3)n2)cc1` [US20240335442, Compound 75], the IC50 in test [1] was 464 nM; in test [2], 51.2 nM.

Consider `CCOc1ccc(-c2nc(C(=O)N/N=C/c3cc(OC)cc(OC)c3)cnc2CC)cc1` [US20240335442, Compound 208], for which the figures for the IC50 in test [1] and in test [2] were 1890 nM and 431 nM, respectively.

Take `CCCOc1cc(/C=N/NC(=O)c2cncc(-c3ccc(OC)cc3)n2)cc(OCCC)c1` [US20240335442, Compound 68]: the IC50 is 1830 nM in test [1] and 289 nM in test [2].

In the case of `CCCOc1ccccc1/C=N/NC(=O)c1cncc(-c2ccc(OC)cc2)n1` [US20240335442, Compound 44], the 50% inhibitory concentration (IC50) in test [1] turned out to be 3620 nM; in test [2], 163 nM.

In the case of `COc1ccc(-c2cncc(C(=O)N/N=C/c3cc(OC)cc(OC)c3OC)n2)cc1` [US20240335442, Compound 80], the IC50 in test [1] was 1490 nM; in test [2], 352 nM.

Turning to `COc1ccc(-c2cncc(C(=O)N/N=C/c3cc(OC)c(OC)c(OC)c3)n2)cc1` [US20240335442, Compound 81], the half-maximal inhibitory concentration (IC50) is > 10000 nM in test [1] and > 1000 nM in test [2].

Turning to `CCOc1ccc(-c2cncc(C(=O)N/N=C/C3=C(C)CCCC3)n2)cc1` [US20240335442, Compound 198], the results for the half-maximal inhibitory concentration (IC50) in test [1] and in test [2] were 367 nM and 24 nM, respectively.

With `COc1ccc(-c2cncc(C(=O)N/N=C/c3cc(OC(C)C)cc(OC(C)C)c3)n2)cc1` [US20240335442, Compound 69], the IC50 was determined as 1430 nM in test [1] and 517 nM in test [2].

With `CCOc1ccc(-c2nc(C(=O)N/N=C/c3cc(OC)cc(OC)c3)cnc2OC)cc1` [US20240335442, Compound 211], the 50% inhibitory concentration (IC50) in test [1] is > 10000 nM; in test [2] it was > 1000 nM.

Turning to `CC(C)Oc1ccc(-c2cncc(C(=O)N/N=C/C3CCC(F)(F)CC3)n2)cc1` [US20240335442, Compound 176], the IC50 was 400 nM in test [1] and 456 nM in test [2].

As to `CCOc1ccc(-c2cncc(C(=O)N/N=C/C3=C(C)CCCCC3)n2)cc1` [US20240335442, Compound 201], the figures for the IC50 in test [1] and in test [2] were 425 nM and 70 nM, respectively.

On to `CCOc1ccccc1/C=N/NC(=O)c1cncc(-c2ccc(OC)cc2)n1` [US20240335442, Compound 43], for which the IC50 in test [1] was 3920 nM; in test [2] it was 188 nM.
